Assay results published in patent publication US20260232625A1, “NOVEL DECURSIN DERIVATIVE AND USE THEREOF FOR PREVENTING OR TREATING NON-SMALL CELL LUNG CANCER” (JAEIN R&P INC., priority 2023, published 2026).

These compounds were tested on A549 (assay: MTT cytotoxicity evaluation against A549 cells). Details: Homo sapiens, A549, 48 h, Method 1: 12.5-200 μM, 48 hours.
Type: cell-based, human
Description: A549 (human lung cancer cells) were obtained from the American Type Culture Collection (ATCC) and used. The cells were cultured in a medium containing 10% FBS, 1% penicillin (10,000 units/mL), and streptomycin (10 mg/mL), or in Dulbecco's Modified Eagle's Medium (DMEM), at 37° C. under 5% CO2 conditions.
To measure cytotoxicity, an MTT assay was used. Specifically, A549 cells cultured according to Experimental Example 1 were seeded into a 96-well plate at a density of 2.5×10^4 cells/mL in 100 μL, and incubated for 24 hours. Thereafter, the cells were treated with either the compounds prepared according to Examples 1 to 27 or, as comparative agents, decursin or docetaxel. The prepared compounds and decursin were each administered to the A549 cell line at concentrations of 0 μM (untreated), 12.5 μM, 25 μM, 50 μM, 100 μM, and 200 μM, while docetaxel was administered at concentrations of 0 nM (untreated), 0.1 nM, 1 nM, 10 nM, 100 nM, and 1,000 nM, followed by incubation for an additional 48 hours. Then, 20 μL of MTT solution was added (Method 1). Alternatively, the compounds prepared according to Examples 28 to 30, the compound of Example 5 as a reference compound or, as comparative agents, decursin or docetaxel, were used. The prepared compounds, the compound of Example 5, and decursin were each administered at concentrations of 0 μM (untreated), 3.125 μM, 6.25 μM, 12.5 μM, 25 μM, and 50 μM, while docetaxel was administered at concentrations of 0 nM (untreated), 0.6 nM, 1.25 nM, 2.5 nM, 5 nM, and 10 nM, and treated in the same manner as described in Method 1 (Method 2). The cells treated with MTT solution were incubated for 2 hours, the medium was removed, and the formazan blue crystals formed by the cells were treated with an MTT lysis buffer, followed by incubation in a cell incubator for 24 hours. The MTT lysis buffer was prepared by mixing N,N-dimethylformamide with water in a 1:1 ratio to give a solution containing 20% SIDS (sodium dodecyl sulfate) at the final concentration. The optical density at 590 nm was measured using a microplate reader (FIGS. 1a to 1d). Based on the measured values, the cytotoxicity (IC50) against A549 was calculated, and the results are disclosed in Table 1 together with the structural formulae.
Compound CC(C)=CC(=O)O[C@H]1Cc2cc3ccc(=O)oc3cc2OC1(C)C [Decursin, decursin] has an IC50 of 43.6 µM. In the case of CC1(C)Oc2cc3oc(=O)ccc3cc2C[C@@H]1OC(=O)CCn1ccnc1 [Example 1, (S)-2,2-dimethyl-8-oxo-2,3,4,8-tetrahydropyrano[3,2-g]chromen-3-yl 3-(1H-imidazol-1-yl)propanoate], the IC50 is reported as > 200 µM. With CC1(C)Oc2cc3oc(=O)ccc3cc2C[C@@H]1OC(=O)CCc1ccccn1 [Example 2, (S)-2,2-dimethyl-8-oxo-2,3,4,8-tetrahydropyrano[3,2-g]chromen-3-yl 3-(pyridin-2-yl)propanoate] the IC50 was > 200 µM. With CC1(C)Oc2cc3oc(=O)ccc3cc2C[C@@H]1OC(=O)/C=C/c1ccccn1 [Example 3, (S,E)-2,2-dimethyl-8-oxo-2,3,4,8-tetrahydropyrano[3,2-g]chromen-3-yl 3-(pyridin-2-yl)acrylate] the IC50 was 113 µM. C/C(=C\c1ccccc1)C(=O)O[C@H]1Cc2cc3ccc(=O)oc3cc2OC1(C)C [Example 4, (S,E)-2,2-dimethyl-8-oxo-2,3,4,8-tetrahydropyrano[3,2-g]chromen-3-yl 2-methyl-3-phenylacrylate] was tested, and the IC50 was 80.7 µM. CC1(C)Oc2cc3oc(=O)ccc3cc2C[C@@H]1OC(=O)CCc1ccc2c(c1)OCO2 [Example 6, (S)-2,2-dimethyl-8-oxo-2,3,4,8-tetrahydropyrano[3,2-g]chromen-3-yl 3-(benzo[d][1,3]dioxol-5-yl)propanoate] was tested, and the IC50 was ≥ 219 µM. For CC1(C)Oc2cc3oc(=O)ccc3cc2C[C@@H]1OC(=O)/C=C/c1ccc2c(c1)OCO2 [Example 7, (S,E)-2,2-dimethyl-8-oxo-2,3,4,8-tetrahydropyrano[3,2-g]chromen-3-yl 3-(benzo[d][1,3]dioxol-5-yl)acrylate], the IC50 was > 200 µM. For CN(C)S(=O)(=O)c1ccc(/C=C/C(=O)O[C@H]2Cc3cc4ccc(=O)oc4cc3OC2(C)C)cc1 [Example 8, (S,E)-2,2-dimethyl-8-oxo-2,3,4,8-tetrahydropyrano[3,2-g]chromen-3-yl 3-(4-(N,N-dimethylsulfamoyl)phenyl)acrylate], the IC50 was > 200 µM. With CC1(C)Oc2cc3oc(=O)ccc3cc2C[C@@H]1OC(=O)/C=C/c1ccc(C(F)(F)F)cc1 [Example 9, (S,E)-2,2-dimethyl-8-oxo-2,3,4,8-tetrahydropyrano[3,2-g]chromen-3-yl 3-(4-(trifluoromethyl)phenyl)acrylate] the IC50 was > 200 µM. CC1(C)Oc2cc3oc(=O)ccc3cc2C[C@H]1OC(=O)CCn1ccnc1 [Example 10, (R)-2,2-dimethyl-8-oxo-2,3,4,8-tetrahydropyrano[3,2-g]chromen-3-yl 3-(1H-imidazol-1-yl)propanoate] was tested, and the IC50 was > 200 µM. In the case of CC1(C)Oc2cc3oc(=O)ccc3cc2C[C@H]1OC(=O)CCc1ccccn1 [Example 11, (R)-2,2-dimethyl-8-oxo-2,3,4,8-tetrahydropyrano[3,2-g]chromen-3-yl 3-(pyridin-2-yl)propanoate], the IC50 is reported as > 200 µM. Compound CC1(C)Oc2cc3oc(=O)ccc3cc2C[C@H]1OC(=O)/C=C/c1ccccn1 [Example 12, (R,E)-2,2-dimethyl-8-oxo-2,3,4,8-tetrahydropyrano[3,2-g]chromen-3-yl 3-(pyridin-2-yl)acrylate] has an IC50 of 184 µM. With C/C(=C\c1ccccc1)C(=O)O[C@@H]1Cc2cc3ccc(=O)oc3cc2OC1(C)C [Example 13, (R,E)-2,2-dimethyl-8-oxo-2,3,4,8-tetrahydropyrano[3,2-g]chromen-3-yl 2-methyl-3-phenylacrylate] the IC50 was 108 µM. For CC1(C)Oc2cc3oc(=O)ccc3cc2C[C@H]1OC(=O)/C=C/c1ccoc1 [Example 14, (R,E)-2,2-dimethyl-8-oxo-2,3,4,8-tetrahydropyrano[3,2-g]chromen-3-yl 3-(furan-3-yl)acrylate], the IC50 was 152 µM. In the case of CC1(C)Oc2cc3oc(=O)ccc3cc2C[C@H]1OC(=O)CCc1ccc2c(c1)OCO2 [Example 15, (R)-2,2-dimethyl-8-oxo-2,3,4,8-tetrahydropyrano[3,2-g]chromen-3-yl 3-(benzo[d][1,3]dioxol-5-yl)propanoate], the IC50 is reported as > 200 µM. In the case of CC1(C)Oc2cc3oc(=O)ccc3cc2C[C@H]1OC(=O)/C=C/c1ccc2c(c1)OCO2 [Example 16, (R,E)-2,2-dimethyl-8-oxo-2,3,4,8-tetrahydropyrano[3,2-g]chromen-3-yl 3-(benzo[d][1,3]dioxol-5-yl)acrylate], the IC50 is reported as > 200 µM. With CN(C)S(=O)(=O)c1ccc(/C=C/C(=O)O[C@@H]2Cc3cc4ccc(=O)oc4cc3OC2(C)C)cc1 [Example 17, (R,E)-2,2-dimethyl-8-oxo-2,3,4,8-tetrahydropyrano[3,2-g]chromen-3-yl 3-(4-(N,N-dimethylsulfamoyl)phenyl)acrylate] the IC50 was > 200 µM. CC1(C)Oc2cc3oc(=O)ccc3cc2C[C@H]1OC(=O)/C=C/c1ccc(C(F)(F)F)cc1 [Example 18, (R,E)-2,2-dimethyl-8-oxo-2,3,4,8-tetrahydropyrano[3,2-g]chromen-3-yl 3-(4-(trifluoromethyl)phenyl)acrylate] was tested, and the IC50 was 172 µM. For CC1(C)Oc2cc3oc(=O)ccc3cc2[C@@H](NC(=O)CCn2ccnc2)[C@@H]1O [Example 19, N-((3S,4R)-3-hydroxy-2,2-dimethyl-8-oxo-2,3,4,8-tetrahydropyrano[3,2-g]chromen-4-yl)-3-(1H-imidazol-1-yl)propanamide], the IC50 was > 200 µM. In the case of CC1(C)Oc2cc3oc(=O)ccc3cc2[C@@H](NC(=O)CCc2ccccn2)[C@@H]1O [Example 20, N-((3S,4R)-3-hydroxy-2,2-dimethyl-8-oxo-2,3,4,8-tetrahydropyrano[3,2-g]chromen-4-yl)-3-(pyridin-2-yl)propanamide], the IC50 is reported as > 200 µM. CC1(C)Oc2cc3oc(=O)ccc3cc2[C@@H](NC(=O)/C=C/c2ccccn2)[C@@H]1O [Example 21, (E)-N-((3S,4R)-3-hydroxy-2,2-dimethyl-8-oxo-2,3,4,8-tetrahydropyrano[3,2-g]chromen-4-yl)-3-(pyridin-2-yl)acrylamide] was tested, and the IC50 was > 200 µM. In the case of C/C(=C\c1ccccc1)C(=O)N[C@@H]1c2cc3ccc(=O)oc3cc2OC(C)(C)[C@H]1O [Example 22, (E)-N-((3S,4R)-3-hydroxy-2,2-dimethyl-8-oxo-2,3,4,8-tetrahydropyrano[3,2-g]chromen-4-yl)-2-methyl-3-phenylacrylamide], the IC50 is reported as > 200 µM. CC1(C)Oc2cc3oc(=O)ccc3cc2[C@@H](NC(=O)/C=C/c2ccoc2)[C@@H]1O [Example 23, (E)-3-(furan-3-yl)-N-((3S,4R)-3-hydroxy-2,2-dimethyl-8-oxo-2,3,4,8-tetrahydropyrano[3,2-g]chromen-4-yl)acrylamide] was tested, and the IC50 was > 200 µM. For CC1(C)Oc2cc3oc(=O)ccc3cc2[C@@H](NC(=O)CCc2ccc3c(c2)OCO3)[C@@H]1O [Example 24, 3-(benzo[d][1,3]dioxol-5-yl)-N-((3S,4R)-3-hydroxy-2,2-dimethyl-8-oxo-2,3,4,8-tetrahydropyrano[3,2-g]chromen-4-yl)propanamide], the IC50 was > 200 µM. CC1(C)Oc2cc3oc(=O)ccc3cc2[C@@H](NC(=O)/C=C/c2ccc3c(c2)OCO3)[C@@H]1O [Example 25, (E)-3-(benzo[d][1,3]dioxol-5-yl)-N-((3S,4R)-3-hydroxy-2,2-dimethyl-8-oxo-2,3,4,8-tetrahydropyrano[3,2-g]chromen-4-yl)acrylamide] was tested, and the IC50 was 151 µM. With CN(C)S(=O)(=O)c1ccc(/C=C/C(=O)N[C@@H]2c3cc4ccc(=O)oc4cc3OC(C)(C)[C@H]2O)cc1 [Example 26, (E)-3-(4-(N,N-dimethylsulfamoyl)phenyl)-N-((3S,4R)-3-hydroxy-2,2-dimethyl-8-oxo-2,3,4,8-tetrahydropyrano[3,2-g]chromen-4-yl)acrylamide] the IC50 was > 200 µM. With CC1(C)Oc2cc3oc(=O)ccc3cc2[C@@H](NC(=O)/C=C/c2ccc(C(F)(F)F)cc2)[C@@H]1O [Example 27, (E)-N-((3S,4R)-3-hydroxy-2,2-dimethyl-8-oxo-2,3,4,8-tetrahydropyrano[3,2-g]chromen-4-yl)-3-(4-(trifluoromethyl)phenyl)acrylamide] the IC50 was 73.4 µM.

Same assay, conditions: Homo sapiens, A549, 48 h, Method 2 (marked *): 3.125-50 μM, 48 hours
In the case of CC(C)=CC(=O)O[C@H]1Cc2cc3ccc(=O)oc3cc2OC1(C)C [Decursin, decursin], the IC50 is reported as 30.4 µM. With CC1(C)Oc2cc3oc(=O)ccc3cc2C[C@@H]1OC(=O)CCc1ccoc1 [Example 28, (S)-2,2-dimethyl-8-oxo-2,3,4,8-tetrahydropyrano[3,2-g]chromen-3-yl 3-(furan-3-yl)propanoate] the IC50 was 96.1 µM. CN(C)c1ccc(CC(=O)O[C@H]2Cc3cc4ccc(=O)oc4cc3OC2(C)C)cc1 [Example 29, (S)-2,2-dimethyl-8-oxo-2,3,4,8-tetrahydropyrano[3,2-g]chromen-3-yl 4-(dimethylamino)phenylacetate] gave an IC50 of 52.4 µM.
